Reference: patent US20170298051A1, “ACTIVATOR OF ADIPONECTIN RECEPTOR” (THE UNIVERSITY OF TOKYO, priority 2013, published 2017)

Experiments:
[1] = test system: AMPK; experiment: AMPK phosphorylation in vivo in skeletal muscle and liver; design: species or system mice; settings: intravenous 50 mg/kg
Method: Immunoblotting was carried out according to the method described previously by which the livers, muscles or white adipose tissues were freeze-clamped in liquid nitrogen in situ^b,d,e.
The procedures used for immunoprecipitation and immunoblotting have been described previously^a,f. Muscle, liver or cell lysates were incubated with 60 μl of protein G sepharose linked to antibodies against phosphotyrosine (4G10) (Merck Millipore). Beads were then washed, the resultant was boiled for 5 min in a sample buffer and the immunoprecipitates were subjected to immunoblotting. Phosphorylation and/or the protein levels of AMPKα (Cell signaling #2535, #2532), IRβ (Upstate 05-321, Santa Cruz sc-711), AKT (Cell signaling #9271, #9272), GSK3 (Cell signaling #5558, #9315) and tubulin (NeoMarkers RB-9281-PO) were determined as described^a,g,h.

[2] = test system: AdipoR1-AMPK pathway and AdipoR2-PPARα pathway in the liver; experiment: Liver: gene expression, TG content, TBARS in mice fed a HF diet; format: in vivo
Method: Real-time PCR was carried out according to the method described previously^a,b,c. Total RNA was prepared from cells or tissues with Trizol (Invitrogen) according to the manufacturer's instructions. We used a real-time PCR method to quantify the mRNAs^19, with slight modifications.
Skeletal muscle homogenates were extracted, and tissue triglyceride content was determined as described previously^a-c, with some modifications. To investigate whether oxidative stress was increased, we measured lipid peroxidation, a marker of oxidative injury, as represented by plasma thiobarbituric acid reactive substance (TBARS) as described previously^4. Briefly, tissue samples were homogenized in a buffer solution containing 50 mM Tris-HCl (pH 7.4) and 1.15% KCl, and then centrifuged. The supernatant was used for the assay. The levels of lipid peroxidation in tissue homogenate and plasma were measured in terms of the amount of TBARS using the LPO test (Wako Pure Chemical Industries).

[3] = test system: Lepr−/− (db/db) mice; experiment: Anti-diabetic effects in db/db mice; format: in vivo
Method: Mice were 6-10 week of age at the time of the experiment. They were housed in cages and maintained on a 12 hr light-dark cycle.
Male Lepr^−/− (aged 6-10 week) were purchased from Jackson Laboratory. When the mice in the same genotype received different treatments, they were randomly assigned to treatment groups.
Plasma glucose levels were determined by using a glucose B-test (Wako Pure Chemical Industries). Plasma insulin was measured with an insulin immunoassay (Shibayagi). Plasma NEFAs (Wako Pure Chemical Industries) were assayed by enzymatic methods.
The oral glucose tolerance test (OGTT) and insulin tolerance test (ITT) were conducted as previously described^a,b with slight modifications. The areas of the glucose and insulin curves were calculated by multiplying the cumulative mean height of the glucose values (1 mg/ml=1 cm) and insulin values (1 ng/ml=1 cm), respectively, by time (60 min=1 cm)^c,a. The insulin resistance index was calculated from the product of the areas of glucose and insulin×10^−2 in the glucose tolerance test. The results are expressed as the percentage of the value respect to control littermates.

[4] = test system: db/db mice; experiment: Lifespan of db/db mice on a HF diet; format: in vivo; settings: daily dose of 30 mg kg−1 body weight
Method: Because the HF diet has been reported to shorten the lifespan, we examined whether orally administered AdipoRon could prolong the shortened lifespan due to a HF diet or not.
That is, the db/db mice were randomly divided into 3 groups: a normal chow group (Normal chow, n=20), high-fat group (High-fat, n=20) and high-fat and additionally AdipoRon group (High-fat+AdipoRon, n=20), which were treated with AdipoRon at a daily dose of 30 mg kg^−1 body weight. The survival rate was recorded daily.

[5] = target: T1, AdipoR1 (Homo sapiens, UniProt Q96A54); experiment: Surface plasmon resonance, affinity for AdipoR1; format: binding; design: made in house; settings: SPR
T1 sequence (Q96A54 1-375): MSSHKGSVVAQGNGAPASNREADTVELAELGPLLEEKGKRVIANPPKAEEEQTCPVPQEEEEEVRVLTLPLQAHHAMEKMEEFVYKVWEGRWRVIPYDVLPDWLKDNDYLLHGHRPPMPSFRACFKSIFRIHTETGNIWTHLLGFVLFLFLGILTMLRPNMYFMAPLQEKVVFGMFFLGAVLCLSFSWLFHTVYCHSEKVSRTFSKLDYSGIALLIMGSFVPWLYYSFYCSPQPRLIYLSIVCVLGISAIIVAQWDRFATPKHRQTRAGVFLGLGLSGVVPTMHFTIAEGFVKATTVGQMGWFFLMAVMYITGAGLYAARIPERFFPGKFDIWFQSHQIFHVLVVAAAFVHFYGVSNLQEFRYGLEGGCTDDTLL
Method: Surface plasmon resonance measurements were performed by a BIAcore X100 system (GE Healthcare) and sensor chip SA (GE Healthcare). Human AdipoR1 and AdipoR2 were expressed with the baculovirus system, and purified to homogeneity. The AdipoR1 and AdipoR2 samples were then reconstituted into egg-phosphatidylcholine liposomes containing biotinyl phosphatidylethanolamine (Avanti), as previously reported^a. Mouse full-length adiponectin was generated as previously described^b,c,d,e. AdipoR1 and AdipoR2 were immobilized onto a sensor chip SA to levels of 2,500-3,000 response units (RU) using standard immobilization protocols (GE Healthcare).
Experiments were performed at 25° C. using AdipoRon (0.49-31.25 μM) and adiponectin (1.5 ng-3.75 μg) and using electrophoresis buffer (20 mM Hepes (pH 7.4), 200 mM NaCl, 10% glycerol, […] surfactant P20). Biacore X100 Evaluation Software was used to determine the equilibrium dissociation constant (KD) of the compound or proteins.

[6] = Adipor1/r2 double-knockout mice fed with a HF diet

Structure (SMILES): O=C(COc1ccc(C(=O)c2ccccc2)cc1)NC1CCN(Cc2ccccc2)CC1 [Compound 73, 2-(4-benzoyl-phenoxy)-N-(1-benzylpiperidin-4-yl)acetamide]
- phosphorylation of AMPK in skeletal muscle and liver ([1]; Adipor1/r2 double-knockout mice): but not in Adipor1/r2 double-knockout mice
- phosphorylation of AMPK in skeletal muscle and liver ([1]; wild-type (WT) mice): significantly induced phosphorylation of AMPK
- effect on TG content and TBARS in the liver [2, 6]: such effect was not observed
- expression level of genes encoding pro-inflammatory cytokines in the liver [2, 6]: such effect was not observed
- expressions of Ppargc1a and G6pc in the liver [2, 6]: such effect was not observed
- expression levels of Pparα and its target genes (Acox1, Ucp2, Cat) in the liver ([2]; WT mice fed a HF diet): increased the expression levels
- TG content in the liver ([2]; WT mice fed with a HF diet): significantly reduced TG content
- expression level of genes encoding pro-inflammatory cytokines (Tnf, Ccl2) in the liver ([2]; WT mice fed with a HF diet): reduced the expression level
- expressions of Ppargc1a and G6pc in the liver ([2]; WT mice fed with a HF diet): significantly decreased the expressions
- oxidative stress, as measured by TBARS, in the liver ([2]; WT mice fed with a HF diet): significantly reduced
- plasma glucose level ([3]; oral 50 mg/kg body weight): decreased plasma glucose level
- glucose intolerance, insulin resistance and dyslipidemia ([3]; oral, 2 weeks): significantly ameliorated
- lifespan [4]: significantly rescued the shortened lifespan
- Rmax [5]: 14.6 RU
- Kd ([5]; 25° C., read-out: equilibrium dissociation constant (KD)): 1800 nM
